Experiments:
Format in all cases: cell-based
DNMT1, UHRF1 and HDM2 = assay: Immunoblot of USP7 oncogenic substrate levels in Jurkat cells; settings: 20 μg total cell lysate, FIG. 5
Protocol: FIG. 5 graphically illustrates a decrease in USP7 oncogenic substrates DNMT1, UHRF1 and HDM2 levels in Jurkat cells treated with the USP7i compound 1. 20 μg total cell lysates from each sample was separated on 10% SDS-PAGE and immunoblotted with antibodies against DNMT1, UHRF1, HDM2 and Actin (loading control).

USP7 = biological target: T1, USP7 (Homo sapiens, UniProt Q93009); assay: DUB activity of USP7 immunoprecipitated from pulse-treated Jurkat cells (Ub-EKL assay); settings: Jurkat cells pulse treated with 10 μM-0.1 μM for 2 hours, FIG. 4A-4B
T1 construct: followed by DUB activity measurement of immunoprecipitated USP7; endogenous in cells; host or cells: Jurkat cells
T1 sequence (Q93009 whole entry): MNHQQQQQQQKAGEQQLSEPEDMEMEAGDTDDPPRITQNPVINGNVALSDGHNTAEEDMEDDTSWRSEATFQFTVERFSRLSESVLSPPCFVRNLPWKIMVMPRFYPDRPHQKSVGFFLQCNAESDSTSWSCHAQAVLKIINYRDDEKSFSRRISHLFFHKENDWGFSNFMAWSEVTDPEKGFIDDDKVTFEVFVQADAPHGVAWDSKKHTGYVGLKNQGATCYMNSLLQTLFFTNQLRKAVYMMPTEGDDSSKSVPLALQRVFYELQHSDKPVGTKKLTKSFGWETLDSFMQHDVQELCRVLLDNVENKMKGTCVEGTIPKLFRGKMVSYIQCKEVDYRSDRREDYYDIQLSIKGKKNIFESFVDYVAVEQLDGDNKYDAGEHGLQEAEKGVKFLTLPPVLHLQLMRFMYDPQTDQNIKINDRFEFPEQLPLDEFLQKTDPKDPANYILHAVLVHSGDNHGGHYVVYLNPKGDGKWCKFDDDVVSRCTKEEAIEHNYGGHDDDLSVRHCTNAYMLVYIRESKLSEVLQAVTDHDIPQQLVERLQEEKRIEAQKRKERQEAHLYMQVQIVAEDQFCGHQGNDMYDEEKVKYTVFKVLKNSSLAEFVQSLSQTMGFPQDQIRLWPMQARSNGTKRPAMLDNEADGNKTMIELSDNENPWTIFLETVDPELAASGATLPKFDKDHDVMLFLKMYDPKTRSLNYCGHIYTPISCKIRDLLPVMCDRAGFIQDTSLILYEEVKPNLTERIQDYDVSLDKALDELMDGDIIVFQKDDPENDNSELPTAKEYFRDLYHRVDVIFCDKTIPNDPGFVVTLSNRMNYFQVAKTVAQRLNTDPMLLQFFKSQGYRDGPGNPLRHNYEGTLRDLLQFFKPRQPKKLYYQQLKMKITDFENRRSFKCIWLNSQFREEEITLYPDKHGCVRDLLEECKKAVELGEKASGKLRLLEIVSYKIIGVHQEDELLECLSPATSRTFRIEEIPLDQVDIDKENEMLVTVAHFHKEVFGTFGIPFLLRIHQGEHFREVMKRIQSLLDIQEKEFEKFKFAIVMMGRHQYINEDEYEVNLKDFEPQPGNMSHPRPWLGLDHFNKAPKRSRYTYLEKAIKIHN
Protocol: Jurkat cells were pulse treated with doses ranging from 10 μM-0.1 μM of compound 1 or DMSO as vehicle control for 2 hours followed by DUB activity measurement of immunoprecipitated USP7 (FIG. 4A) as well as total cell lysate (FIG. 4B) using Ub-EKL assay (U.S. Pat. No. 8,680,139). A portion of the immunoprecipitated USP7 is separated on 10% SDS-PAGE and immunoblotted with anti-USP7 antibody to detect the level of USP7 protein (shown at the top of graphs in FIG. 4A).

Murine Tregs = assay: Treg suppression assay with CFSE labeled T effector cells (FACS); settings: Murine Tregs pre-treated for 2 hours, washed, incubated with CFSE labeled T effector cells for 3 days; FIG. 6
Protocol: Murine Tregs were pre-treated with compound 1 for 2 hours, washed and incubated with carboxyfluorescein succinimidyl ester (CFSE) labeled T effector cells at varying concentrations for 3 days. T effector cell proliferation was monitored using FACS analysis. Percentage proliferation is plotted using Graphpad prism.

## O=C(Nc1ccc2c(c1)S(=O)(=O)C=C2)c1nnc(Sc2c(Cl)cncc2Cl)s1 [compound 1, 5-((3,5-dichloropyridin-4-yl)thio)-N-(1,1-dioxido-2,3-benzo[b]thiophen-6-yl)-1,3,4-thiadiazole-2-carboxamide]
DNMT1, UHRF1 and HDM2
  USP7 oncogenic substrates DNMT1, UHRF1 and HDM2 levels: decrease
USP7
  mode of USP7 inhibition (DUB activity of immunoprecipitated USP7 after pulse treatment): irreversible inhibitors
Murine Tregs
  Treg functions (T effector cell proliferation): inhibition of Treg functions

— patent US11273154B2, “Azole compounds as ubiquitin-specific protease USP7 inhibitors” (PROGENRA, INC., priority 2017, dated 2022)
